Reference: patent publication US9603896B2, “Peptide compounds and methods of production and use thereof” (priority 2012, dated 2017)
Like-named read-outs stand apart in the source and are kept apart here. Ends that are not written are not given here.

Columns and labels:
[1] = test system: P. aeruginosa (ATCC® 27853™); assay: Pseudomonas keratitis model in the mouse eye; format: in vivo; settings: topical, doses of 10 and 20 mg/ml
Protocol: A circular wound was created on the mouse cornea by removing the epithelium and infected with 10^5 colony forming units (CFU) of P. aeruginosa (ATCC® 27853™ (American Type Culture Collection, Manassas, Va.)). Infected wounds were treated with saline (0.9% sodium chloride, vehicle control) or saline containing indicated concentrations of peptide every 15 minutes for 2 hours, then every 30 minutes for 3 hours on the first day. Infected wounds were treated twice on the second day and once on the third day. Mice were killed at 48 hours post-infection, and CFU/eye were quantified. The means were plotted and are representative of 5 to 9 mice per group. Mann Whitney test was performed for each group as compared to the saline control group. *P=0.014.
A circular wound (2 mm) was created on the mouse cornea by removing the epithelium and infecting the wound with 10^5 CFU of P. aeruginosa (ATCC® 27853™ (American Type Culture Collection, Manassas, Va.)). Infected wounds were treated with saline or saline containing indicated concentrations of peptide every 15 minutes for 2 hours, then every 30 minutes for 3 hours on the first day. Infected wounds were treated twice on the second day and once on the third day. Mice were killed at 48 hours post-infection, and the colony forming units per eye (CFU/eye) were quantified. The means are plotted and are representative of 5 to 9 mice per group. Mann Whitney test was performed for each group as compared to the saline control group.
For FIGS. 15-17, in vivo bactericidal activity of the peptides was also investigated using the standard Pseudomonas keratitis model in the mouse eye (FIGS. 15-17). Peptides 120-146QR-5RMP (SEQ ID NO:32), 120-146WH (SEQ ID NO:31), and 120-146WR (SEQ ID NO: 30) were applied topically at doses of 2, 5, 10, and 20 mg/ml to the wounded cornea that had been infected with 10^5 CFU of Pseudomonas aeruginosa. The efficacies of the peptides were compared to treatment with the vehicle control. Mice were euthanized at 48 hours post infection, and the CFU/eye were quantified.

[2] = test system: Acinetobacter baumannii ATCC® BAA-747™; assay: In vitro bactericidal assay (CFU remaining, log reduction); format: cell-based; settings: for reduction of CFU/ml / bactericidal activity against Acinetobacter baumannii: 60 minutes; for reduction of CFU/ml: highest peptide concentrations (25 μM); for bactericidal activity against Acinetobacter baumannii: peptides up to 25 μM, gentamicin 4 μg/ml
Protocol: The three peptide compounds BCC01-5RMP (SEQ ID NO:21), BCC02-5RMP (SEQ ID NO:22), and BCC03-5RMP (SEQ ID NO:23) were assayed for in vitro bactericidal activity against Pseudomonas aeruginosa, Escherichia coli, Salmonella typhimurium, and Acinetobacter baumannii. The starting inoculum for all experiments was 1×10^6 colony forming units (CFU)/ml. The CFU remaining at the end of 60 to 180 minute incubation was determined, and the data plotted as a log reduction in CFU/ml.
For FIGS. 10-13, in vitro bactericidal assays were performed using a starting inoculum of 1×10^6 CFU/ml of the bacterial suspension. The CFU remaining at the end of the 60-180 minute incubation was determined, and the data was plotted as log reduction in CFU/ml.
In particular, each of the test peptides (CAP37 peptides 120-146WR, 120-146WH, and 95-122 (SEQ ID NOs: 30, 31, and 26, respectively)) was used at 25, 12.5, 6.25, and 3.12 μM. Gentamicin was used at 4 μg/ml. 1×10^6/ml Acinetobacter baumannii ATCC® BAA-747″ or Pseudomonas aeruginosa ATCC® 27853™ (American Type Culture Collection, Manassas, Va.) were incubated with the peptides, negative buffer control (tryptone saline), and positive control gentamicin at pH 5.5 or 7.2. A 60 minute incubation was used for Acinetobacter baumannii ATCC® BAA747™, while a 180 minute incubation was used for Pseudomonas aeruginosa ATCC® 27853™. 50 μl aliquots were plated out on agar plates and incubated overnight. Colony forming units were counted after overnight incubation and CFU/ml calculated.

[3] = test system: Pseudomonas aeruginosa ATCC® 27853™; format: cell-based; settings: 180 minutes

Sequence	CFU/eye at 48 hours post infection vs saline [1]	activity against A. baumannii ([2]; 25 μM)	reduction of CFU/ml ([2]; pH 5.5) [logs]	reduction of CFU/ml ([2]; pH 7.2) [logs]	reduction of CFU (FIG. 14) ([3]; pH 5.5, highest concentrations (150 μg/ml)) [logs]	reduction of CFU/ml ([3]; pH 7.2, highest concentrations of peptides (25 μM)) [logs]	bactericidal activity against Pseudomonas aeruginosa ([3]; pH 7.2, peptides at 25 μM)	bactericidal activity against Acinetobacter baumannii ([2]; pH 5.5)	bactericidal activity against Acinetobacter baumannii ([2]; pH 7.2)	bactericidal activity against Pseudomonas aeruginosa ([3]; pH 5.5, peptides up to 25 μM)
GTRCQVAGWGSWHSGGRLSRFPRFVNV [Peptide 120-146WH]	significantly reduced the CFU/eye	highly active	~4	~5.5	6	6	as effective as the standard antibiotic gentamicin			
LDREANLTSSVTILPLPLQNATVEAGTR (listed as Homo sapiens) [Peptide 95-122]							not active	not active	not active	not active
